The source of these data is US6423722B1, “Crystalline macrolides and process for their preparation” (Novartis AG, priority 1997, dated 2002).

What all share (assay type): physicochemical
Data set [1] can be described thus: solubility in the oil phase of cream (oleyl alcohol/miglyol 812 4:6).
Data set [2] is described as follows: dissolution in the oil phase in the preparation of a cream. The following applies: for time to dissolve in the oil phase: preparation of a cream. The text has this:
The availability of well-defined crystalline forms of the compound of formula I is therefore particularly indicated for use in the preparation of galenical forms of the compound where it is indicated to overcome the above disadvantages, such as in the preparation of topical forms, e.g. creams, emulsions and ointments where it is desired to include the compound normally in dissolved state but under carefully controlled conditions. Thus in the preparation of a cream, it has been observed that Form A dissolves in the oil phase in about 10 minutes, whereas for Form B it takes about 6 hours.
(§1) During the preparation of these preformulations, it is observed that the solving speed of crystal Form B in the oily phase of the cream is much slower than that of crystal Form A. Immediately after manufacturing, the forms are investigated and no remaining crystals are observed.

Data set [3] can be described thus: solubility of the crystal forms in water and organic solvents.
Data set [4] can be described thus: hygroscopicity (uptake determined by thermogravimetry). As for the experimental part: hygroscopicity (uptake determined by thermogravimetry): 1.49% (1 day, 92% r.h.); 1.78% (1 week, 25° C., 75% r.h.); hygroscopicity(uptake determined by thermogravimetry): 1 day, 92% r.h. and 1 week, 25° C., 75% r.h.: none;
A short description of data set [5]: solubilization of Forms A and B in 1% creams; examination for crystals after manufacturing and storage. The following applies: room temperature; estimated. How it is done:
a) The solubility of Form A in a cream formulation is estimated to be about 1% at room temperature. In the manufacturing of cream, the drug substance is completely dissolved in the oily phase at 60-75°. To assess whether and after which storage time part of the drug substance dissolved will crystallize from the 1% cream, a series of batches is examined for crystals.
The drug substance used in the batches and preformulations mentioned above contained 100% Form A.
b) To assess whether drug substance containing Form B can be completely dissolved in the manufacturing of cream and to evaluate the long-term crystallization behaviour, several preformulations (cream, 1%) containing 0%, 1%, 5% and 10% Form B relative to the total content of compound of formula I are manufactured and put on stability testing at different temperatures.
as §1
To get information about the long-term crystallization behaviour of these forms, the stability samples are further investigated after 6 weeks, 3, 6 and 9 months storage.

The nature of data set [6]: thermodynamic stability of the crystal forms. The following applies: compared with Form A.

SMILES strings stand for the structures. Converted amounts (≈) assume the structure as drawn. Where two headings read alike, the source gives them in different places. Bounds are passed on as bounds.

Consider `CC[C@@H]1/C=C(\C)C[C@H](C)C[C@H](OC)[C@H]2O[C@@](O)(C(=O)C(=O)N3CCCC[C@H]3C(=O)O[C@H](/C(C)=C/[C@@H]3CC[C@H](Cl)[C@H](OC)C3)[C@H](C)[C@@H](O)CC1=O)[C@H](C)C[C@@H]2OC` [Form A, 33-epichloro-33-desoxyascomycin], for which, in data set [1], the “solubility in the oil phase of cream” value was 2.49%. Further, the “time to dissolve in the oil phase” value in data set [2] is “about 10 minutes”. Besides, the solubility (as a rule, the concentration that dissolves in the medium under given conditions) in data set [3] (acetone, 25 °C, organic solvent or mixture, at 25° C., read-out: solubility in acetone) was greater than 50 mg/mL; in data set [3] (acetonitrile, 25 °C, organic solvent or mixture, at 25° C., read-out: solubility in acetonitrile), greater than 50 mg/mL; in data set [3] (ethanol, 25 °C, organic solvent or mixture, at 25° C., read-out: solubility in ethanol), greater than 50 mg/mL; in data set [3] (ethyl acetate, 5 °C, organic solvent or mixture, at 5° C., read-out: solubility in ethyl acetate) it was greater than 100 mg/mL; in data set [3] (ethyl acetate, 25 °C, organic solvent or mixture, at 25° C., read-out: solubility in ethyl acetate), greater than 50 mg/mL; in data set [3] (isopropanol, 25 °C, organic solvent or mixture, at 25° C., read-out: solubility in isopropanol) it was greater than 50 mg/mL. In addition, the solubility in data set [3] (methanol, 25 °C, organic solvent or mixture, at 25° C., read-out: solubility in methanol) was greater than 50 mg/mL. The solubility in diethylether in data set [3] (at 5° C.) is greater than 100 mg/mL. The “solubility in diisopropyl ether” value in data set [3] (at 5° C.) is greater than 100 mg/mL. For the same compound, in data set [3] (at 5° C.), the solubility in ethanol is greater than 100 mg/mL. Further, the solubility in hexane in data set [3] (at 5° C.) was less than 10 mg/mL. In addition, the solubility in methanol in data set [3] (at 5° C.) was greater than 100 mg/mL. For the same compound, the solubility in water entry is “insoluble” in data set [3] (at 5° C., result in words) and less than 1 mg/mL in data set [3] (at 25° C.). The “hygroscopicity (uptake determined by thermogravimetry)” value (“hygroscopicity” below) is given as 1.78% in data set [4] (1 week, 25° C., 75% r.h.) and 1.49% in data set [4] (1 day, 92% r.h.). For the same compound, the “solubility in a cream formulation” value in data set [5] is on record as “about 1%”.

As to `CC[C@@H]1/C=C(\C)C[C@H](C)C[C@H](OC)[C@H]2O[C@@](O)(C(=O)C(=O)N3CCCC[C@H]3C(=O)O[C@H](/C(C)=C/[C@@H]3CC[C@H](Cl)[C@H](OC)C3)[C@H](C)[C@@H](O)CC1=O)[C@H](C)C[C@@H]2OC` [Form B, 33-epichloro-33-desoxyascomycin], the “solubility in the oil phase of cream” value in data set [1] is recorded as 0.37%. In addition, in data set [6], the thermodynamic stability result is on record as “thermodynamically a more stable form than Form A”. Moreover, the “solving speed in the oily phase of the cream” value in data set [2] (preparation of 1% cream preformulations, compared with Form A) was “much slower”. Moreover, the “time to dissolve in the oil phase” value in data set [2] is on record as “about 6 hours”. In data set [3] (at 5° C.), the solubility in diethylether amounted to 9.3 mg/mL (≈ 11.5 mM), the “solubility in diisopropyl ether” value came to 1.9 mg/mL (≈ 2.34 mM), the solubility in ethanol stood at 18.1 mg/mL (≈ 22.3 mM) and the “solubility in ethyl acetate” value is greater than 50 mg/mL. For the same compound, in data set [3] (at 5° C.), the solubility in hexane was found to be 0.8 mg/mL (≈ 0.987 mM) and the solubility in methanol is 46.3 mg/mL (≈ 57.1 mM). In addition, in data set [3] (at 25° C.), the solubility in ethanol is 34.4 mg/mL (≈ 42.4 mM), the “solubility in ethyl acetate” value is greater than 50 mg/mL, the solubility in methanol is greater than 50 mg/mL and the solubility in water stood at 0.4 mg/mL (≈ 0.494 mM). Moreover, in data set [3] (diethyl ether, 25 °C, organic solvent or mixture, at 25° C., read-out: solubility in diethyl ether), the solubility was determined as 16.3 mg/mL (≈ 20.1 mM). In addition, the solubility in data set [3] (diisopropyl ether, 25 °C, organic solvent or mixture, at 25° C., read-out: solubility in diisopropyl ether) amounted to 3.1 mg/mL (≈ 3.82 mM). For the same compound, the solubility in data set [3] (hexane, 25 °C, organic solvent or mixture, at 25° C., read-out: solubility in hexane) was 1.5 mg/mL (≈ 1.85 mM). The solubility in data set [3] (water, 5 °C, water, at 5° C., read-out: solubility in water) was determined as 0.3 mg/mL (≈ 0.37 mM). Further, in data set [4] (1 week, 25° C., 75% r.h., result in words), the “hygroscopicity” value was “none”. The “hygroscopicity” value in data set [4] (1 day, 92% r.h., result in words) is “none”.
